The subject of one assay is HeLa. The assay can be described thus: Cytotoxicity against human HeLa cells. The format is functional, cell-based.
For assay [1], the target named is T1, 5-hydroxytryptamine receptor 1A (Homo sapiens) (UniProt P08908).
T1 sequence (whole entry): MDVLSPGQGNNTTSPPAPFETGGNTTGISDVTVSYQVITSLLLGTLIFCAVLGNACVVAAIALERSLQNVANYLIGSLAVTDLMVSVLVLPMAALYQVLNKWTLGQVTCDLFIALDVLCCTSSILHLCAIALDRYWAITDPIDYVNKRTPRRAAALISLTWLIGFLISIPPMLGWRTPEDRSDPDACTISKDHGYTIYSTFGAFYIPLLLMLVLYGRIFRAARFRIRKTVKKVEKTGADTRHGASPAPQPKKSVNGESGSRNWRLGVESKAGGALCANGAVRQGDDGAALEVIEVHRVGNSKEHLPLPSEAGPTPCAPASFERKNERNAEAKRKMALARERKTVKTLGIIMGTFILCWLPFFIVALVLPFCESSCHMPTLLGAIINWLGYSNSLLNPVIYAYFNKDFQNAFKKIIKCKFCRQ
The assay can be described thus: Inhibition of 5HT1A receptor at 25 uM.

In assay [2] the target is 5-hydroxytryptamine receptor 2B (Homo sapiens, UniProt P41595). The assay is described as follows: Inhibition of human 5HT2B receptor expressed in cos-7 cells assessed as [3H]5-HT […] after 120 mins. The format is cell-based.
Assay [3] has as its target T2, 5-hydroxytryptamine receptor 3A (Homo sapiens) (UniProt P46098).
T2 sequence (whole entry): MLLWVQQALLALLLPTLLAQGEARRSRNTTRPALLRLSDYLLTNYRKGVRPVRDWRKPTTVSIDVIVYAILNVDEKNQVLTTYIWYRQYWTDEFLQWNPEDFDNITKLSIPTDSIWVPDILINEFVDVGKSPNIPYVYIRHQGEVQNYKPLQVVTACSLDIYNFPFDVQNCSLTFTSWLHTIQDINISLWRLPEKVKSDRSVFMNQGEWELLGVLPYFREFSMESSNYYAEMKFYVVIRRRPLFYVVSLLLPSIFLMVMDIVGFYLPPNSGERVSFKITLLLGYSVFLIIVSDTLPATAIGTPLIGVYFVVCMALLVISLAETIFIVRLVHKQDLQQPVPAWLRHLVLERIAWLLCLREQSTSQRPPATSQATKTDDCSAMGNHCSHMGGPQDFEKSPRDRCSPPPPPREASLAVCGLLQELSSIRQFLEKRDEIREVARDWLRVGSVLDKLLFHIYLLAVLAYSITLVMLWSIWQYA
The assay can be described thus: Inhibition of 5HT3 receptor at 25 uM.

Calls of active or inactive are those of the source. No cut-off for these calls is given here.

The source of these data is ChEMBL document CHEMBL1921715, “Usabamycins A-C: new anthramycin-type analogues from a marine-derived actinomycete” (Bioorg Med Chem Lett, 2011).

As usually defined, the IC50 is the midpoint of a concentration-inhibition curve. The term Ki denotes the dissociation constant of the complex between target and ligand, obtained from inhibition or displacement.

Chain of 5-hydroxytryptamine receptor 2B (P41595 whole entry): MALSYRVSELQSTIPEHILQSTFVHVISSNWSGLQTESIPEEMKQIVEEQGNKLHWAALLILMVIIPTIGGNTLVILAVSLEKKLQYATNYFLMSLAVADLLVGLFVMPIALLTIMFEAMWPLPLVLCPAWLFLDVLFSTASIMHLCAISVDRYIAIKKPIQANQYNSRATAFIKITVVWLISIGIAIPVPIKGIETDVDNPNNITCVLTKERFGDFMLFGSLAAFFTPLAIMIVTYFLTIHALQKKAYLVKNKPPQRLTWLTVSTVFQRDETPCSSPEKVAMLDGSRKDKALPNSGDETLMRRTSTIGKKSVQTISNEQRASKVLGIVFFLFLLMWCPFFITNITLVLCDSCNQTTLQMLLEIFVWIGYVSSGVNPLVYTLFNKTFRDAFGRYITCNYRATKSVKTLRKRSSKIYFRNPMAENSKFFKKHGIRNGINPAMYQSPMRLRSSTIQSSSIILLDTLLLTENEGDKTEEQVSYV

Turning to `CC/C=C1\C[C@H]2CNc3c(OC)cccc3C(=O)N2C1` [USABAMYCIN A], the IC50 with HeLa stood at 107 µM; in assay [2] it was 12.4 µM. The inhibition result in assay [1] and in assay [3] was “inactive” in each case. The Ki in assay [2] was 7.89 µM.

For the molecule `C/C=C1\C[C@H]2CNc3c(OC)cccc3C(=O)N2C1` [USABAMYCIN B], the IC50 in the assay with HeLa was 104 µM; in assay [2], 8.45 µM. Besides, the inhibition entry in assay [1] and in assay [3] was “inactive” in each case. In assay [2], the Ki is 5.38 µM.

Consider `CC/C=C1\C[C@H]2CNc3ccccc3C(=O)N2C1` [USABAMYCIN C], for which the IC50 was 102 µM with HeLa and 8.24 µM in assay [2]. For the same molecule, the inhibition entry in assay [1] and in assay [3] was “inactive” throughout. In addition, the Ki in assay [2] stood at 5.24 µM.
